Laboratory results as given in patent US20260193668A1, “NOVEL PEPTIDES AND USE THEREOF FOR MODULATING PROTEIN ACCUMULATION” (UNIVERSITE TOULOUSE III - PAUL SABATIER, priority 2022, published 2026).

How the values were obtained:
soybean plants = assay: Heat stress resistance of soybean plants; format: in vivo, Glycine max; details: 45° C. for 24 h
From the text: (§1) (a, b) Relative area of lesions on S. lycopersicum leaves infected with B. cinerea and treated with an irrelevant peptide or cPEPjar1. (c, d) Heat stress resistance of soybean plants treated with an irrelevant peptide or cPEPsp101. (e, f) Growth (plant height) of soybean plants treated with an irrelevant peptide or a mixture of cPEPs (targeting MRB1, SHY2 and SGR1). (g, h) Leaf area of B. vulgaris plants treated with an irrelevant peptide or a mixture of cPEPs (targeting EIN2, BR11, BAK1 and WUS). (i, j) Leaf surface of A. hypochondriacus plants treated with an irrelevant peptide or a mixture of cPEPs (targeting EIN2, BR11, BAK1 and WUS).
N. benthamiana plants were treated by spraying the leaves 24 h before harvesting. For Luc assays, 100 μL of MS/2 liquid medium containing the peptides was added to each well. 5 μL of luciferin was added and luciferase activity was read 30 min later using a spectrophotometer. All other assays were performed by spraying or watering the plants. To quantify the protein level induced by cPEPs in Arabidopsis, rosettes were sprayed daily with 100 μM of peptide or its control for 5 days. Leaves were harvested 6 h after the last treatment for western blot analysis. […] Chlorophyll content was measured using the SPAD chlorophylometer (Konica Minolta). Leaf area was measured using ImageJ software. […]

luciferase [1] = assay: In vitro transcription/translation of luciferase (wheat germ system); format: biochemical; details: 60 min
From the text: (§2) (a) Analysis of luciferase activity in A. thaliana plants constitutively expressing the LUC transgene and treated with Scrambled cPEPluc or cPEPluc, with or without cycloheximide. (b) Analysis of luciferase activity after in vitro transcription/translation of luciferase expressed with cPEPluc or Scrambled cPEPluc.
The TnT® SP6 high-throughput wheat germ protein expression system (Promega) was used according to the manufacturer's instructions. The LUC sequence was amplified using the GoTaq Polymerase® (Promega), cPEPs or their corresponding Scramble versions were added just prior to the start of the reaction. The reaction was stopped after 60 min, after which LUC activity was measured using a plate spectrophotometer (Perkin-Elmer Victor Nivo).

luciferase [2] = assay: Luciferase activity in A. thaliana LUC plants with or without cycloheximide; format: in vivo, Arabidopsis thaliana; details: cycloheximide 200 μg·mL^−1, 24 h
Procedure: as §2
Arabidopsis thaliana plants comprising the LUC construct were treated by infiltrating the leaves with a solution of peptide with or without cycloheximide (200 μg·mL^−1) in MS/2 medium, 24 h before harvesting for the LUC assay.

luciferase mRNA = assay: Relative expression of the luciferase transgene by RT-qPCR; format: in vivo, Arabidopsis thaliana; details: A. thaliana expressing LUC treated with synthetic peptide
From the text: (§3) Analysis of luciferase expression in A. thaliana constitutively expressing the LUC transgene. (a) Agarose gel after PCR amplification of RNA obtained by immunoprecipitation using anti-HA magnetic beads, followed by RT-PCR, on plants treated with the indicated peptide (SC-HA: Scrambled cPEPluc-HA; Luc-HA: cPEPluc-HA). (b) Relative expression of the luciferase transgene in plants treated with the indicated peptide, quantified by RT-qPCR. (c-e) Relative quantification of LUC in plants treated with the indicated peptide. (f, g) Ratio between induction and quantification of LUC in plants treated with cPEPluc compared to plants treated with Scrambled cPEPluc, using different peptide concentrations (f) or taken at different time points (g). (h) Transcriptomic analysis of plants treated with cPEPluc-HA compared to plants treated with Scrambled cPEPluc-HA. (i) Proteomic analysis of plants treated with cPEPluc-HA compared to plants treated with Scrambled cPEPluc-HA. Protein expression was analysed by Western blots and quantified using ImageJ.
Quantification of mRNAs was performed by qRT-PCR using appropriate primer pairs selected from the sequences: SEQ ID NOs: 367 to 374. Expression levels for the controls were set at 100. The primers used for the A. euteiches assays are described in Camborde et al (New Phytol. 233:2232-2248. 2022).

luciferase [3] = assay: Luciferase activity in A. thaliana constitutively expressing the LUC transgene; format: in vivo, Arabidopsis thaliana
From the text: as §3
Medicago truncatula Gaertn cv. Jemalong genotype A17 were grown on Long Aston medium as described in Delaux P M et al (New Phytol. 2013 July; 199(1):59-65). Arabidopsis thaliana Col-0 plants were grown in soil until 4 weeks of age in a growth chamber (22/20° C., 16 h/8 h L/D, RH 80%, ~75 μmol·m^−2 s^−1). Barbarea vulgaris seeds were stratified for 24 h at 4° C. before being grown in pots in a growth chamber. Seeds of Amaranthus hypochondriacus, Glycine max and Solanum lycopersicum were sown in pots and grown in a growth chamber. […]
N. benthamiana plants were treated by spraying the leaves 24 h before harvesting. […] 5 μL of luciferin was added and luciferase activity was read 30 min later using a spectrophotometer. […] To quantify the protein level induced by cPEPs in Arabidopsis, rosettes were sprayed daily with 100 μM of peptide or its control for 5 days. […] Chlorophyll content was measured using the SPAD chlorophylometer (Konica Minolta). Leaf area was measured using ImageJ software. […]

Botrytis cinerea = assay: S. lycopersicum leaves infected with B. cinerea; format: in vivo; details: tomato
From the text: as §1
Wild-type or mutant A. thaliana leaves were sprayed daily with 100 μM of peptide or 100 μM of the corresponding scramble version for 3 days. Six hours after the last treatment, five mature leaves per plant were inoculated with a 5 μL droplet of 2.5×10^5 spores/mL of Botrytis cinerea strain B05.10 diluted in 100 μM of peptide or its corresponding scramble version. After inoculation, plants were maintained at 100% relative humidity. Then, a 2 μL droplet of 100 μM of peptide or 100 μM of the corresponding scramble version was deposited daily on B. cinerea-infected leaves for 3 days (until symptoms appeared). Leaves were removed from the plants to determine lesion areas using the ImageJ programme. […]

[4] = 96-well assay, cPEPluc compared to Scrambled cPEPluc

cPEPhsp101 (EEYRKYVEKD; cPEPhsp101) [SEQ ID NO: 408, cPEP targeting the homolog of HSP101 in soybean]
tolerance to heat stress (soybean plants): increased

cPEPluc: complementary peptide of 10 amino acids corresponding to a 10 amino acid fragment of the luciferase protein (KRYGLNTNHR; cPEPluc)
LUC activity in vitro (luciferase [1]): increased | effect of cPEPluc on luciferase activity in the presence of CHX (luciferase [2]): inhibited | luciferase mRNA abundance (qPCR) (luciferase mRNA): no effect | optimum concentration of cPEP for luciferase induction (luciferase [3]; [4]): 50 µM | treatment time showing the maximum effect of cPEP (luciferase [3]; [4]): 24 h | luciferase activity (luciferase [3]; A. thaliana LUC seedlings, exogenous peptide treatment, compared with water or non-luciferase-specific peptides): increased

cPEPjar1: cPEP targeting the tomato JAR1 protein (AFRTFEQVWE; cPEpjar1)
plant's resistance to B. cinerea (Botrytis cinerea): improved
